According to patent publication US6682892B2, “Method for treating herpes viruses” (priority 2000, dated 2004):

Assays:
[1] = system: HSV-1 DJL-M1 (V823A); assay: Plaque reduction assay, 4-oxo-DHQ resistant HSV-1 DJL-M1; type: cell-based; settings: Table 2, mutant V823A
Experimental: (§1) Antiviral activity of compounds against herpesviruses such as HSV-1, HSV-2, or HCMV can be measured using plaque reduction assays. 0.1 ml of media containing approximately 50 PFU of virus is added to each well of a 24-well cell culture dish containing a confluent monolayer of cells (Vero cells for HSV-1 and HSV-2, HFF cells for HCMV). Compounds are dissolved in 100% DMSO and diluted in 100% DMSO as 200× stocks of the desired final drug concentration. Typically 5-6 two-fold dilutions are prepared for each compound. Dilutions of compounds are then added to media containing 0.8% CMC resulting in a final 1× drug concentration. After the virus-infected cells have incubated for 1 h at 37° C., the virus innoculum is removed and 1 ml of media containing 0.8% CMC and the various concentrations of compound is added to each well of the dish. The dish is incubated at 37° C. for approximately 2-3 days (HSV-1 and HSV-2) or 6-9 days (HCMV) to allow sufficient growth of virus to form plaques in the cell monolayer. Plaques can be observed and counted microscopically or by staining the cells with 0.1% crystal violet in 20% ethanol. […] The IC50 values are calculated by plotting the per cent inhibition vs. concentration of compound using EXCEL software for linear regression. […]

[2] = system: HSV-1 DJL; assay: Plaque reduction assay, HSV-1 DJL; type: cell-based; settings: Table 1, plaque reduction, Vero cells
Experimental: (§2) Antiviral activity of compounds against herpesviruses such as HSV-1, HSV-2, or HCMV can be measured using plaque reduction assays. 0.1 ml of media containing approximately 50 PFU of virus is added to each well of a 24-well cell culture dish containing a confluent monolayer of cells (Vero cells for HSV-1 and HSV-2, HFF cells for HCMV). Compounds are dissolved in 100% DMSO and diluted in 100% DMSO as 200× stocks of the desired final drug concentration. Typically 5-6 two-fold dilutions are prepared for each compound. Dilutions of compounds are then added to media containing 0.8% CMC resulting in a final 1× drug concentration. After the virus-infected cells have incubated for 1 h at 37° C., the virus innoculum is removed and 1 ml of media containing 0.8% CMC and the various concentrations of compound is added to each well of the dish. The dish is incubated at 37° C. for approximately 2-3 days (HSV-1 and HSV-2) or 6-9 days (HCMV) to allow sufficient growth of virus to form plaques in the cell monolayer. Plaques can be observed and counted microscopically or by staining the cells with 0.1% crystal violet in 20% ethanol. […] Antiviral activity of a compound is expressed as the concentration of compound predicted to reduce the number of plaques in a well by 50% (IC50). The IC50 values are calculated by plotting the per cent inhibition vs. concentration of compound using EXCEL software for linear regression.
(§3) A panel of viruses consisting of four strains of HSV-1 (KOS, F, DJL, Patton) and three strains of HSV-2 (MS, 35D, 186) are tested in a plaque reduction assay against four different 4-oxo-DHQ compounds (#1, 2, 4, 5 as shown in FIG. 1), and one 4-oxo-DHTP compound (#3 as shown in FIG. 1) and against Acyclovir. The six drugs inhibited replication of the seven virus strains with IC50 values ranging from 2-10 μM (Table 1). In order to select for 4-oxo-DHQ resistant mutants, HSV-1 strains KOS, F, and DJL along with HSV-2 strains 186 and MS are serially passaged in the presence of 20 uM compound 1. Following the seventh passage, 4-oxo-DHQ resistant virus from each strain are plaque purified three times and high-titer stocks are made.

[3] = system: HCMV AD169-M1 (V823A, V824L); assay: Plaque reduction assay, 4-oxo-DHQ resistant HCMV AD169-M1; type: cell-based; settings: Table 4, plaque reduction, resistant mutant; read-out: HCMV AD169 - M1 IC50
Experimental: as §2
A plasmid containing the wild-type HCMV polymerase gene is modified to contain the V823A or V823A and V824L mutations using a site-directed mutagenesis Kit (Stratagene Corp.) and following the manufactures's protocol. HFF cells are plated into T25 tissue culture flasks to achieve 80% confluency at the time of the transfection. Wild type HCMV AD 169 DNA and plasmid DNA containing the mutant HCMV polymerase gene are mixed at a ratio of 1:2 (2 ug of viral DNA to 4 ug of plasmid DNA). DNA's are transfected using superfect transfection reagent according to methods recommended by the manufacturer (Quiagen Inc.). Cells are harvested five days posttransfection, freeze-thawed to release virus and half of the sample is used to infect HFF cell monolayers. Cells are overlayed with media containing 20 uM 4-oxo-DHQ compound 2 (see FIG. 1). Serial passage is repeated seven times in the presence of 20 uM compound 2 and virus isolates are then plaque purified three times prior to preparation of viral stock.
In order to isolate an HCMV resistant mutant marker rescue experiments are done. Plasmids containing the mutant polymerase genes are transfected into HFF cells along with wild type HCMV AD169 DNA. The resulting virus is then serially passaged in the presence of 20 uM compound 1 (see FIG. 1). A 4-oxo-DHQ resistant virus is isolated from marker rescue studies done with the HCMV polymerase gene containing mutations that result in the V823A, V824L amino acid changes, but not with the gene containing V823A change alone.

[4] = system: 4-oxo-DHQ resistant HSV-1, HSV-2 and HCMV mutants; assay: Plaque reduction assay, 4-oxo-DHQ resistant mutants compared with parent virus; type: cell-based; settings: HSV-1 and HSV-2 mutants
Experimental: as §1

[5] = biological target: HCMV (wild) polymerase (Human cytomegalovirus, UniProt P08546); assay: In vitro polymerase assay, wild HCMV polymerase; type: biochemical; settings: Table 3
Sequence of HCMV (wild) polymerase (P08546 whole entry): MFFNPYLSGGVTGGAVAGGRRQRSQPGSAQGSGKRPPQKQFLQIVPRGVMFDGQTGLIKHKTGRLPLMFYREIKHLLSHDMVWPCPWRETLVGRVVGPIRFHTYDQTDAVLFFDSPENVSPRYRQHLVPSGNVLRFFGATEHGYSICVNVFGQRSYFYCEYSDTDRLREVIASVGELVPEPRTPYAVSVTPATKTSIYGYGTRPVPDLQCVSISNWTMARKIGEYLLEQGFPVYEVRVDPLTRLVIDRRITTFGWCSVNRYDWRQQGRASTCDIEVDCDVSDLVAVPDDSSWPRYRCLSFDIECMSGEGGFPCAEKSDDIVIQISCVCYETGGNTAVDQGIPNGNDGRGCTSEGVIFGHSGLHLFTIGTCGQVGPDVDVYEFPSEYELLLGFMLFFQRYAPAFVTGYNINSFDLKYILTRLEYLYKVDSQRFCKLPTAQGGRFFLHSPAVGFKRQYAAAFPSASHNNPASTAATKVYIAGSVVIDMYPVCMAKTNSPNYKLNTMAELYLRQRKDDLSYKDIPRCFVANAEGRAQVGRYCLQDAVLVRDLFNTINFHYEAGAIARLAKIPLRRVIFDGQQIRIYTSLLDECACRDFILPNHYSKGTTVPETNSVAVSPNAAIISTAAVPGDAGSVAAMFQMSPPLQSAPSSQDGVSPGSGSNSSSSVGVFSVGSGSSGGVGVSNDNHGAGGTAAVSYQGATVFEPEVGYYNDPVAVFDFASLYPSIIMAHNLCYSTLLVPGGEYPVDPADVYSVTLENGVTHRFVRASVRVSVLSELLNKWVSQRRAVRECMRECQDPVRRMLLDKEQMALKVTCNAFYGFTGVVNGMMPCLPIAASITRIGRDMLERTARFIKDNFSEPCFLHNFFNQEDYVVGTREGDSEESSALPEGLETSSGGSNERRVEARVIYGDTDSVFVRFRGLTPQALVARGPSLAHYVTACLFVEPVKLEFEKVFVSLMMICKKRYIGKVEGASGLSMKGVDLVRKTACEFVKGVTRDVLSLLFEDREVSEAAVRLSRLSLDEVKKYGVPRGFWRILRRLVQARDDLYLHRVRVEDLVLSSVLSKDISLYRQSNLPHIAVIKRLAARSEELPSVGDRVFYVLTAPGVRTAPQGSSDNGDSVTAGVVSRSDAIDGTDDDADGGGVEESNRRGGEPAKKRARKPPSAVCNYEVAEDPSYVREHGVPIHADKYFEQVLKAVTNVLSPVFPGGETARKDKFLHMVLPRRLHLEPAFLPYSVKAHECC
Experimental: In order to select for a 4-oxo-DHQ HCMV resistant mutant, virus (strain AD169) is serially passaged in the presence of 20 uM a 4-oxo-DHQ. […] In order to determine if both valines need to be changed in order to confer resistance to the 4-oxo-DHQ's, in vitro polymerase assays are done using mutant HCMV polymerases containing either V823A or V823A plus V824L (Table 3).

[6] = system: HSV-1 F; assay: Plaque reduction assay, HSV-1 F; type: cell-based; settings: Table 1, plaque reduction, Vero cells
Experimental: as §2, §3

[7] = system: HSV-2 186; assay: Plaque reduction assay, HSV-2 186; type: cell-based; settings: Table 1, plaque reduction, Vero cells
Experimental: as §2, §3

[8] = system: HSV-1 F-M1 (V823A); assay: Plaque reduction assay, 4-oxo-DHQ resistant HSV-1 F-M1; type: cell-based; settings: Table 2, mutant V823A
Experimental: as §1

Cn1cc(C(=O)NCc2ccc(Cl)cc2)c(=O)c2cc(/C=C\CO)cc(F)c21 [Compound 1]
IC50 [1]: > 20 µM
IC50 [2]: 2.5 µM
IC50 [3]: 4.7 µM
increase in IC50, HSV mutants selected with compound 1 [4]: > 10 fold
IC50 [5]: 4.6 µM
IC50 [6]: 2.5 µM
IC50 [7]: 2 µM
IC50 [8]: > 20 µM
